Test [1] has as its target T1, rat PrRP receptor (Rattus norvegicus, UniProt Q64121).
T1 construct: host or cells: RC-4B/C rat pituitary cell line
T1 sequence (Q64121 1-370): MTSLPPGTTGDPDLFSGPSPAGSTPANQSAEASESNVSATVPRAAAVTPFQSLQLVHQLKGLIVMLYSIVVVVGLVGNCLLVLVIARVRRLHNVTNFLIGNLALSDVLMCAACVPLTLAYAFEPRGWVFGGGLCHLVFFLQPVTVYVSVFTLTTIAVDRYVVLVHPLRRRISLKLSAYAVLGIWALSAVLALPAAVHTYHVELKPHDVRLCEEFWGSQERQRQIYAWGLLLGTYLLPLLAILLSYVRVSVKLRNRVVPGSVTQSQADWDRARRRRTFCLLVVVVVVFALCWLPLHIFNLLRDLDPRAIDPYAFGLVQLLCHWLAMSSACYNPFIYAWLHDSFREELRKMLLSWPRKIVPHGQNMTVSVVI
Briefly: Competitive binding in RC-4B/C rat pituitary cells (125I-rat PrRP31). The note with it: for % of PrRP31, RC-4B/C rat pituitary cells: affinity relative to PrRP31. In outline: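 Intact rat pituitary RC-4B/C cells incubated 60 min at room temperature with […] rat 125I-PrRP31 and unlabeled analog (10^−11 to 10^−4 mol·l^−1) in HEPES pH 7.4 buffer. Cell-bound radioactivity γ-counted after NaOH lysis; one-site competition fit.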

Test [2] deals with T2, human PrRP receptor GPR10 (Homo sapiens, UniProt P49683).
T2 construct: host or cells: CHO cells
T2 sequence (P49683 1-370): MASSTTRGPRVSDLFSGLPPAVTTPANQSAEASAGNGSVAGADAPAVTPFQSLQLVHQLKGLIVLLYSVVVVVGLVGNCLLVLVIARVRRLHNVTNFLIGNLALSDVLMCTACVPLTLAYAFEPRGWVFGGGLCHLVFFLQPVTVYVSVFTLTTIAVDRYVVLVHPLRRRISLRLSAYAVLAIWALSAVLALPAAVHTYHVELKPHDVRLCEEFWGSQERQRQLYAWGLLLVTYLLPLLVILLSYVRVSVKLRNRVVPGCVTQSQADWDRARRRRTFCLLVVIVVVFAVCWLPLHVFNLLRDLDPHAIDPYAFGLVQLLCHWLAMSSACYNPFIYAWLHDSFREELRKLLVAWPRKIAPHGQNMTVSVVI
Briefly: Competitive binding in CHO cells transfected with human GPR10 (human 125I-PrRP31). The note with it: for % of PrRP31, GPR10 human receptor transfected in CHO cells: affinity relative to PrRP31. In outline:
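GPR10-transfected CHO cells (40-80 thousand/well) incubated 60 min at room temperature with 5×10^-11 mol·l^-1 human 125I-PrRP31 and unlabeled analog at 10^-11 to 10^-4 mol·l^-1 in Tris binding buffer pH 7.4. Cells solubilized in 0.1 mol/l NaOH, γ-counted; one-site nonlinear regression fit.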

The subject of test [3] is C57BL/6 mice. Briefly: Food intake in fasted mice after SC injection. It counts as in vivo. The note with it: 5 mg/kg SC, 45 min after injection. The method in brief: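 Overnight-fasted animals (food removed 17 h before dosing, water available) in individual cages got saline, PrRP or lipidated PrRP analogs SC at 1-10 mg/kg.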
For test [4], the system named is Wistar rats. Briefly: Food intake in fasted rats after SC injection. It counts as in vivo. The note with it: overnight fasted rats, compared to controls given vehicle. The protocol: (§1) NMRI mice, C57BL/6 mice, and Wistar rats (AnLab, Prague, Czech Republic) were housed in a temperature of 23° C. and a daily cycle of 12 h light and dark (light from 6:00). They were given ad libitum water and a standard chow diet that contained 25, 9 and 66% of calories of protein, fat and carbohydrate respectively. Energy content of the feed was 3.4 kcal/g (St-1, Mlýn Kocanda, Czech Republic). Db/db mice and their controls (C57BL/6 background) were obtained from Taconic (Denmark), housed under the same conditions as described above, and fed by Altromin (Taconic, Denmark). ZDF-Lepr^fa/Crl, diabetic fa/fa male rats were obtained from Charles River (France), housed under same conditions as described above, and fed with a Purina 5008 diet (IPS Product Supplies Limited, UK). All experiments followed the ethical guidelines for animal experiments and the law of the Czech Republic Nr. 246/1992.
In experiments with C57BL/6 mice or Wistar rats, food intake was measured with overnight fasted animals in individual cages. Food was withdrawn 17 hours prior to injection of lipidated analog of prolactin releasing peptide (PrRP); free access to water was maintained. The administration of either saline, PrRP, or lipidated analogs was performed by SC injection at doses of 1-10 mg/kg (which corresponded to a volume of 0.2 ml/mouse and 0.1 ml/100 g weight of rat). Fifteen minutes after the lipidated analog of prolactin releasing peptide (PrRP) administration, the mice were given pre-weighed food. The food was then weighed every 30 minutes for 5-10 hours. The administration of each dose was performed at least twice, and each group of mice consisted of at least 6 mice.

Test [5] concerns ZDF diabetic rats. Briefly: 21 days repeated administration in diabetic ZDF rats (food intake, OGTT, metabolic parameters). Format: in vivo. The note with it: for Cumulative food intake Day 1 / Cumulative food intake Day 1-7 / Cumulative food intake Day 1-14 / Cumulative food intake Day 1-21 / Cholesterol / Insulin / Leptin: ZDF rats. The protocol: Rats were subjected to a 21-day food intake experiment. ZDF rats were IP injected with either phosphate-buffered saline pH6 (control) or compound 43 or 52 at a dose of 1 and 5 mg/kg (n=8), twice a day for 21 days. After 21 days of treatment, rats were fasted overnight and OGTT was performed. After initial blood glucose measurement, 2 g/kg glucose solution was administered by oral gavage. Blood glucose was then measured at 15, 30, 60, 90, 120 and 180 min.
as §1
The ZDF rats were treated with vehicle or analogs 43 and 52 (1 and 5 mg/kg IP) dissolved in phosphate buffered saline, pH 6, twice daily for 21 days and sacrificed on day 22. Food intake was measured daily up to day 22. Leptin, insulin, cholesterol and HbA1c levels were measured on day 21. Glucose tolerance test (OGTT) was also performed on day 21.
Rats were subjected to a 21-day food intake experiment. ZDF rats were IP injected with either phosphate-buffered saline pH6 (control) or compound 43 or 52 at a dose of 1 and 5 mg/kg (n=8), twice a day for 21 days. After 21 days of treatment, rats were fasted overnight and OGTT was performed. After initial blood glucose measurement, 2 g/kg glucose solution was administered by oral gavage. Blood glucose was then measured at 15, 30, 60, 90, 120 and 180 min. […] The statistical significance, denoted by the asterisk (*), was *P<0.05.

In test [6] the test system is MAPK/ERK1/2 signaling pathway. The note with it: positive control; cited from earlier work.
[7] abbreviates: CHO cells, human 125I-PrRP31, read-out: Ki, GPR10 human receptor transfected in CHO cells.

In general, Ki refers to the equilibrium dissociation constant of an inhibitor or competing ligand from its target.

Read-outs that look alike come from different tables or passages of the source. Marks after values point to notes of the source that are not given here. Numbered stars: 1 amine (or outer) side, 2 acyl side, 3 side chain; on linkers, the order of the positions; unused ones are H or OH. Side chains are listed from the residue outwards. Ends that are not written are not given here. Peptide text beside a SMILES is read from it. * marks the point of attachment. TTDA(Palmitoyl) = CCCCCCCCCCCCCCCC(=O)NCCCOCCOCCOCCCN*; γGlu = O=C(O)[C@H](CCC(=O)[*:2])N[*:1]; Palmitoyl = CCCCCCCCCCCCCCCC(=O)*; Suc = O=C(CCC(=O)[*:2])[*:1]

Regarding `CCCCCCCCCCCCCCCC(=O)N[C@@H](CCC(=O)NCCCC[C@H](NC(=O)[C@@H](NC(=O)[C@H](CCC(=O)O)NC(=O)[C@H](CCSC)NC(=O)[C@H](CO)NC(=O)[C@H](Cc1c[nH]cn1)NC(=O)[C@H](CCCNC(=N)N)NC(=O)[C@H](Cc1c[nH]cn1)NC(=O)[C@@H](NC(=O)[C@H](CCCNC(=N)N)NC(=O)[C@@H](N)CO)[C@@H](C)O)[C@@H](C)CC)C(=O)N[C@H](C(=O)N1CCC[C@H]1C(=O)N[C@@H](CC(=O)O)C(=O)N[C@H](C(=O)N[C@@H](CC(N)=O)C(=O)N1CCC[C@H]1C(=O)N[C@@H](C)C(=O)N[C@@H](Cc1c[nH]c2ccccc12)C(=O)N[C@@H](Cc1ccc(O)cc1)C(=O)N[C@@H](C)C(=O)N[C@@H](CO)C(=O)N[C@@H](CCCNC(=N)N)C(=O)NCC(=O)N[C@H](C(=O)N[C@@H](CCCNC(=N)N)C(=O)N1CCC[C@H]1C(=O)N[C@H](C(=O)NCC(=O)N[C@@H](CCCNC(=N)N)C(=O)N[C@@H](Cc1ccccc1)C(N)=O)C(C)C)[C@@H](C)CC)[C@@H](C)CC)[C@@H](C)O)C(=O)O` [Analog 52] (H-SRTHRHSMEIK([γGlu-Palmitoyl])TPDINPAWYASRGIRPVGRF-NH2), in test [1], the Ki was determined as 4.23 ± 2.11 nM and the “% of PrRP31, RC-4B/C rat pituitary cells” value worked out at 57%. For the same molecule, in test [2], the affinity corresponds to a Ki of 5.95 ± 0.72 nM and the “% of PrRP31, GPR10 human receptor transfected in CHO cells” value stood at 65%. The “Food intake in mice % of saline-treated group” value in test [3] turned out to be 10%. In test [4], the “Food intake in rats” value is listed as “significantly reduced”. Also, the “Food intake in free fed ZDF diabetic rats” value in test [5] (5 mg/kg IP twice daily, vs vehicle) is recorded as “significantly lowered”. Moreover, in test [5] (1 mg/kg IP twice daily), the “Cumulative food intake Day 1” value worked out at 43.0 ± 2.2 g, the “Cumulative food intake Day 1-7” value worked out at 306.9 ± 11.8 g, the “Cumulative food intake Day 1-14” value was 570.9 ± 17.1 g and the “Cumulative food intake Day 1-21” value is reported as 811.5 ± 23.6 g. In test [5] (5 mg/kg IP twice daily), the “Cumulative food intake Day 1” value is listed as 42.4 ± 2.1 g, the “Cumulative food intake Day 1-7” value is reported as 287.8 ± 12.5* g, the “Cumulative food intake Day 1-14” value is 559.0 ± 21.0* g and the “Cumulative food intake Day 1-21” value is 814.8 ± 26.1 g. For the same molecule, in test [5] (day 21, 1 mg/kg IP twice daily), the Cholesterol worked out at 3.71 ± 0.16 mmol/L, the Insulin is 268.94 ± 43.40 pmol/L and the Leptin is 16336 ± 1466 pg/mL. Besides, in test [5] (day 21, 5 mg/kg IP twice daily), the Cholesterol amounted to 3.19 ± 0.16 mmol/L, the Insulin worked out at 183.35 ± 37.49 pmol/L and the Leptin came out at 11372 ± 427 pg/mL.
Regarding `CCCCCCCCCCCCCCCC(=O)N[C@@H](CCC(=O)NCCCC[C@H](NC(=O)[C@@H](NC(=O)[C@H](CCC(=O)O)NC(=O)[C@H](CCSC)NC(=O)[C@H](CO)NC(=O)[C@H](Cc1c[nH]cn1)NC(=O)[C@H](CCCNC(=N)N)NC(=O)[C@H](Cc1c[nH]cn1)NC(=O)[C@@H](NC(=O)[C@H](CCC(=O)O)NC(=O)[C@@H](N)CO)[C@@H](C)O)[C@@H](C)CC)C(=O)N[C@H](C(=O)N1CCC[C@H]1C(=O)N[C@@H](CC(=O)O)C(=O)N[C@H](C(=O)N[C@@H](CC(N)=O)C(=O)N1CCC[C@H]1C(=O)N[C@@H](C)C(=O)N[C@@H](Cc1c[nH]c2ccccc12)C(=O)N[C@@H](Cc1ccc(O)cc1)C(=O)N[C@@H](C)C(=O)N[C@@H](CO)C(=O)N[C@@H](CCCNC(=N)N)C(=O)NCC(=O)N[C@H](C(=O)N[C@@H](CCCNC(=N)N)C(=O)N1CCC[C@H]1C(=O)N[C@H](C(=O)NCC(=O)N[C@@H](CCCNC(=N)N)C(=O)N[C@@H](Cc1ccccc1)C(N)=O)C(C)C)[C@@H](C)CC)[C@@H](C)CC)[C@@H](C)O)C(=O)O` [Analog 55] (H-SETHRHSMEIK([γGlu-Palmitoyl])TPDINPAWYASRGIRPVGRF-NH2), the “% of PrRP31, RC-4B/C rat pituitary cells” value in test [1] is 236%. Moreover, in test [2] (setting [7]), the Ki is 4.72 ± 0.35 nM. The “% of PrRP31, GPR10 human receptor transfected in CHO cells” value in test [2] was 83%. In addition, in test [3], the “Food intake in mice % of saline-treated group” value was determined as 12%. Also, in test [4], the “Food intake in rats” value is “significantly reduced”.
The like results for `CCCCCCCCCCCCCCCC(=O)NCCCOCCOCCOCCCNC(=O)CCC(=O)NCCCC[C@H](NC(=O)[C@@H](NC(=O)[C@H](CCC(=O)O)NC(=O)[C@H](CCSC)NC(=O)[C@H](CO)NC(=O)[C@H](Cc1c[nH]cn1)NC(=O)[C@H](CCCNC(=N)N)NC(=O)[C@H](Cc1c[nH]cn1)NC(=O)[C@@H](NC(=O)[C@H](CCCNC(=N)N)NC(=O)[C@@H](N)CO)[C@@H](C)O)[C@@H](C)CC)C(=O)N[C@H](C(=O)N1CCC[C@H]1C(=O)N[C@@H](CC(=O)O)C(=O)N[C@H](C(=O)N[C@@H](CC(N)=O)C(=O)N1CCC[C@H]1C(=O)N[C@@H](C)C(=O)N[C@@H](Cc1c[nH]c2ccccc12)C(=O)N[C@@H](Cc1ccc(O)cc1)C(=O)N[C@@H](C)C(=O)N[C@@H](CO)C(=O)N[C@@H](CCCNC(=N)N)C(=O)NCC(=O)N[C@H](C(=O)N[C@@H](CCCNC(=N)N)C(=O)N1CCC[C@H]1C(=O)N[C@H](C(=O)NCC(=O)N[C@@H](CCCNC(=N)N)C(=O)N[C@@H](Cc1ccccc1)C(N)=O)C(C)C)[C@@H](C)CC)[C@@H](C)CC)[C@@H](C)O` [Analog 57] (H-SRTHRHSMEIK([Suc-TTDA(Palmitoyl)])TPDINPAWYASRGIRPVGRF-NH2; N-terminus assumed) were, in that order, 663%, 3.79 ± 0.46 nM, 103%, 10% and “significantly reduced”.
As for “PrRP31: prolactin-releasing peptide composed of 31 amino acids, positive control; rat or human form not stated (SRAHQHSMETRTPDINPAWYTGRGIRPVGRF-NH2; ends and bridges not checked)”, the “Initiation of MAPK/ERK1/2 signaling” value in test [6] is on record as “shown to initiate MAPK/ERK1/2 signaling”.

The values are drawn from US10350271B2, “Lipidated peptides for lowering blood glucose” (USTAV ORGANICKE CHEMIE A BIOCHEMIE AKADEMIE VED CR, V.V.I., priority 2014, dated 2019).
